Measured values: patent US5182289A, “Heterobicyclic compounds having antiinflammatory activity” (Schering Corporation, priority 1990, dated 1993)
Read-outs that look alike come from different tables or passages of the source. Blank lines part the entries; values can stand above or below the compound they belong to.

What was measured:
[1] = test system: Reversed Passive Arthus Reaction (RPAR) in the pleural cavity; assay: Reversed Passive Arthus Reaction (RPAR) in the pleural cavity: cells and fluid; type: in vivo, male rats; details: Rattus norvegicus, 4 h; for inhibition in vivo at 40 mg/kg: dose 40 mpk; for inhibition in vivo at 25 mg/kg: dose 25 mpk
Description: (§1) Reversed Passive Arthus Reaction (RPAR) Assay
(§2) Groups of 4 male rats were injected in the penile vein with antigen (1 mg BSA in 0.2 mL of saline per rat) and 0.5 hour later injected in the pleural cavity with antibody (1.0 mg antibody protein in the IgG fraction of rabbit anti-BSA in 0.2 mL). […] After 4 hours the animals were killed with CO2, and the pleural cavities were opened and the exudate drained into a graduated conical glass centrifuge tube containing indomethacin (1.8 ug) and nordihydroguaiaretic acid (NDGA) (15 ug) to block ex vivo metabolite synthesis. The volume of the exudate was measured. The cavity was then washed out with saline-EDTA to achieve a final volume of 5.0 mL. The number of cells were determined in a Colulter Counter. The cells were spun-down (1000×g) and the exudate supernatant was added to 4 volumes of 95% ethanol and samples were kept on ice for 30 minutes. After removal of the protein precipitate (2,500×g) the ethanol extract of the exudate was dried under N2 and then stored at -20° C. For radioimmunoassay (RIA) analysis the samples were redissolved in water to a volume of 1 mL per rat. Utilizing internally spiked samples, recovery of TXB2 (tritiated thromboxane B2) and LTE4 (tritiated leukotriene-E4) from exudates was determined to be 84±2% (SEM) and 89±2% (N=4), respectively. Exudate samples were directly assayed in duplicate with the commercial ^3 H-TXB2 RIA kit from New England Nuclear and the ^3 H-LTC4 /D4 /E4 kit from Amersham. The assay was validated using reversed-phase HPLC analysis of LTs in the standard procedure described by M. W. Musch, R. W. Bryant, C. Coscollaela, R. F. Myers and M. I. Siegel, Prostaglandins, Vol. 29, pp 405-430 (1985). Samples of ethanol exudate extract were "spiked" with ^3 H-LTs to follow HPLC purification and recovery.

5-LO = assay: Reversed Passive Arthus Reaction (RPAR) in the pleural cavity: LTE-4 in exudate; type: in vivo, male rats
Description: as §1, §2

CO (cyclooxygenase) = assay: Reversed Passive Arthus Reaction (RPAR) in the pleural cavity: TXB-2 in exudate; type: in vivo, male rats
Description: as §1, §2

5-lipoxygenase = biological target: T1, 5-lipoxygenase (Homo sapiens, UniProt P09917); assay: 5-Lipoxygenase Assay in human polymorphonuclear (PMN) leukocytes, 5-HETE production; type: cell-based
T1 construct: Human polymorphonuclear (PMN) leukocytes (neutrophils) are obtained from normal healthy volunteers; endogenous in cells; host or cells: human polymorphonuclear leukocytes (neutrophils) from blood of healthy volunteers
T1 sequence (P09917 1-674): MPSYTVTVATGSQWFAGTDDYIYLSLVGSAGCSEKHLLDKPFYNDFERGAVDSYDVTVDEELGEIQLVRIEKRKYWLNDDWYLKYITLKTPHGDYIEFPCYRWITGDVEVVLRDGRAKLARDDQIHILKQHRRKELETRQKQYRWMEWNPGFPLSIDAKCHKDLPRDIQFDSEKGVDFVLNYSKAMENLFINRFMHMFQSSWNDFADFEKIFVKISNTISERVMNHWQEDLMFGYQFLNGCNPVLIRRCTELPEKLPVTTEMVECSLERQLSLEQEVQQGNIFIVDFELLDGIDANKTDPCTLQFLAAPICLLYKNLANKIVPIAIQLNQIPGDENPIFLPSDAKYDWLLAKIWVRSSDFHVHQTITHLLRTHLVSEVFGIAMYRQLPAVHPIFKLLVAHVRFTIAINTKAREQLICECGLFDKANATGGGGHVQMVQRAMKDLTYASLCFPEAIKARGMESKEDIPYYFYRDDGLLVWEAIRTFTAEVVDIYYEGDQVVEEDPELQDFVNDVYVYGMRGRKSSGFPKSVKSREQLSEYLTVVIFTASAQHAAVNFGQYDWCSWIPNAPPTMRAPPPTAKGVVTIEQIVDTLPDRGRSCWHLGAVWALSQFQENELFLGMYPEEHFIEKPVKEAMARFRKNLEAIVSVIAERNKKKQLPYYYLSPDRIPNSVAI
Description: Human polymorphonuclear (PMN) leukocytes (neutrophils) are obtained from normal healthy volunteers by venipuncture and collected with heparin anticoagulant. Neutrophils are isolated by Dextran/Ficol sedimentation as described (Billah et al, J. Biol. Chem. 260, 6899-6906 (1985)). In brief, 30 ml of blood is mixed with 5 ml of dextran (Sigma) solution and kept at 37° C. for 30 min. The upper white cellrich layer is removed and 10 ml is layered on 9 ml of Ficol-Paque solution (Pharmacia) and centrifuged at 280×g for 10 min. at 5° C. The supernatant is removed and the neutrophil pellet is resuspended in HEPES buffer containing 25 mM N-2-hydroxyethylpiperazine-N^1 -2 ethanesulfonic acid(HEPES), 125 mM NaCl, 2.5 mM KCL, 0.7 mM MgCl2, 0.5 mM and 10 mM glucose at pH 7.4. The red cells in the suspension are lysed by hypotonic shock. The neutrophils are washed by centrifugation in HEPES buffer two times and finally resuspended at a concentration of 20×10^6 cells/ml in the presence of 1 mM CaCl2.
Neutrophils (0.2 ml of suspension) are preincubated with dimethylsulfoxide (DMSO) vehicle with or without test compound (1 ul) for 4 minutes then incubated for 5 minutes with ^14 C-arachidonic acid (Amersham, 59 Ci/mole) at a 9 uM final concentration, and the calcium ionophore A23187 (Calbiochem) at a 1 uM final concentration. These stimulants are added in 10 ul of water:ethanol (9:1). The reaction is stopped by addition of methanol (0.4 ml), and cellular debris is removed by centrifugation. Aliquots (100 ul) of the incubations are run on a Waters two pump high performance liquid chromatography (HPLC) system fitted with a DuPont Zorbax ODS, 5 u, 4×80 […] Reliance Cartridge column and C18 "Guard Pak". The column is initially eluted at 2 ml/min with 80 percent of the mixture water:methanol:acetic acid (46:54:0.08) containing 1 mM EDTA adjusted to pH 6.0 with ammonium hydroxide (Pump A) and 20% methanol (Pump B). At 10 minutes, a linear gradient is established. to reach 100 percent methanol (Pump B) at 27 minutes. Between 27 and 28 minutes, methanol is exchanged for the initial eluting solvent and by 35 minutes the column is reequilibrated for the next sample. The effluent is analyzed by a continuous flow radioactivity monitor (model ROMONA-D) interfaced with a Hewlett Packard Lab Automation System for quantitation of radioactive products. This includes the major 5-lipoxygenase product, 5-hydroxyeicosatetraenoic acid (5-HETE) which elutes at 20 minutes. The results with and without test compound are used to calculate percent inhibition of 5-HETE production.

cyclooxygenase = biological target: T2, cyclooxygenase (Homo sapiens, UniProt P23219); assay: Cyclooxygenase Assay with Human Platelets, HHT production; type: cell-based; details: for % inhibition of HHT production in human platelets at 50 µM / % inhibition of HHT production in human platelets at 15 µM: read-out: PMN Assay % Inhibition HHT
T2 construct: Cyclooxygenase Assay with Human Platelets; endogenous in cells; host or cells: human blood platelets from healthy volunteers
T2 sequence (P23219 24-599): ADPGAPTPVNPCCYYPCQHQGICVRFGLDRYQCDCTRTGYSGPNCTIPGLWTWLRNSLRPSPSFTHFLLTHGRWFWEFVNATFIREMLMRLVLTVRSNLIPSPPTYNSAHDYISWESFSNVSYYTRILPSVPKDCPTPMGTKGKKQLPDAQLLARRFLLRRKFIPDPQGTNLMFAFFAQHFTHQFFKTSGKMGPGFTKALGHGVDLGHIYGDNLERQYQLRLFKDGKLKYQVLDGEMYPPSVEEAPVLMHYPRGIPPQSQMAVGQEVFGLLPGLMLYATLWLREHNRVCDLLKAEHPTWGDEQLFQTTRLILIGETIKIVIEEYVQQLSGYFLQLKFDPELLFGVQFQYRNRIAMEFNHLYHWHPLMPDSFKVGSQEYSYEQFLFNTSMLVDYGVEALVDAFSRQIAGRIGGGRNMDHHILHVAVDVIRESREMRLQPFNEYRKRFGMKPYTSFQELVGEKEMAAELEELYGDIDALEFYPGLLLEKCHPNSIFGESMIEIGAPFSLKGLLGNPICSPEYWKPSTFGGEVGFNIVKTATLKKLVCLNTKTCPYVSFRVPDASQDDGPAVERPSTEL
Description: Cyclooxygenase Assay with Human Platelets
Blood is collected in acid-citrate-dextrose anticoagulant by venipuncture from normal healthy volunteers who said that they were not on any medication for the previous two weeks. Platelets are isolated by the procedure of Okuma and Uchino (Blood 54:1258-1271 (1979)). In brief, blood is centrifuged at 4° C. at 200×g for 10 minutes to sediment red and white cells. The platelet rich plasma (PRP) supernatant is removed and mixed with one-tenth volume of 77 mM EDTA, pH 7.2 and prostacyclin sodium salt is added to the PRP at a final concentration of 1 nanogram per milliliter(ng/mL). The PRP is centrifuged at 1700×g, 4° C. for 15 minutes. The platelet pellet is resuspended in the HEPES buffer described in the 5-lipoxygenase section above which additionally contained 1 ng/mL prostacyclin and 0.5 mM ethylene glycolbis(B-aminoethyl ether) N,N,N',N'-tetraacetic acid (EGTA) and the suspension is recentrifuged at 1,700×g, 4° C. for 15 minutes. The pellet is resuspended in HEPES buffer containing 0.5 mM EGTA and 1.5 mM CaCl2 at a cell count of 200,000 cells/ul. Platelets (0.2 ml of suspension) are preincubated with test compounds and the ^14 C-arachidonic acid plus the calcium ionophore A23187 stimulant exactly as described for the 5-lipoxygenase assay. The cyclooxygenase product 12-hydroxyheptadecatrienoic acid (HHT) is isolated and quantitated by the HPLC system used for the 5-lipoxygenaseassay. HHT elutes from this system at about eleven minutes. Results are expressed as percent inhibition of HHT production by the test compounds versus the test vehicle alone.

[2] = read-out: RPAR-Pleural Cavity % Inhibition cells
[3] = read-out: RPAR-Pleural Cavity % Inhibition fluid

Compound: CC1(C)C(=O)N(c2ccccc2)c2ncccc21 [Compound 1, 1,3-dihydro-3,3-dimethyl-1-phenyl-2H-pyrrolo[2,3-b]pyridin-2-one]
- inhibition in vivo at 40 mg/kg [1, 2]: 70%
- inhibition in vivo at 40 mg/kg [1, 3]: 60%
- RPAR-Pleural Cavity % Inhibition LTE-4 (5-LO; dose 40 mpk): 54%
- RPAR-Pleural Cavity % Inhibition TXB-2 (CO (cyclooxygenase); dose 40 mpk): 54%

Compound: CC1(C)C(=O)N(c2ccc(Cl)cc2)c2ncccc21 [Compound 2, 1-(4-chlorophenyl)-1,3-dihydro-3,3-dimethyl-2H-pyrrolo[2,3-b]pyridin-2-one]
- inhibition in vivo at 25 mg/kg [1, 2]: 73%
- inhibition in vivo at 25 mg/kg [1, 3]: 83%
- RPAR-Pleural Cavity % Inhibition LTE-4 (5-LO; dose 25 mpk): 87%
- RPAR-Pleural Cavity % Inhibition TXB-2 (CO (cyclooxygenase); dose 25 mpk): 78%

Compound: O=C1C([S+]([O-])c2ccccc2)c2cccnc2N1c1cccc(C(F)(F)F)c1 (stereo not drawn) [Compound 13, 1,3-dihydro-3-(phenylsulfinyl)-1-(3-trifluoromethylphenyl)-2H-pyrrolo[2,3-b]pyridin-2-one]
- inhibition at 50 µM (5-lipoxygenase): 82%
- % inhibition of HHT production in human platelets at 50 µM (cyclooxygenase): 44%

Compound: CC1(Sc2ccccc2)C(=O)N(c2ccccc2)c2ncccc21 (stereo not drawn) [Compound 16, 1,3-dihydro-3-methyl-1-phenyl-3-(phenylthio)-2H-pyrrolo[2,3-b]pyridin-2-one]
- inhibition at 50 µM (5-lipoxygenase): 68%
- % inhibition of HHT production in human platelets at 50 µM (cyclooxygenase): 2%

Compound: O=C1C(Sc2ccccc2Cl)c2cccnc2N1c1ccccc1 (stereo not drawn) [Compound 20, 1,3-dihydro-3-(2-chlorophenylthio)-1-phenyl-2H-pyrrolo[2,3-b]pyridin-2-one]
- inhibition at 50 µM (5-lipoxygenase): 90%
- % inhibition of HHT production in human platelets at 50 µM (cyclooxygenase): 80%

Compound: COc1ccccc1SC1C(=O)N(c2ccccc2)c2ncccc21 (stereo not drawn) [Compound 22, 1,3-dihydro-3-(2-methoxyphenylthio)-1-phenyl-2H-pyrrolo[2,3-b]pyridin-2-one]
- inhibition at 50 µM (5-lipoxygenase): 84%
- % inhibition of HHT production in human platelets at 50 µM (cyclooxygenase): 31%

Compound: O=C1N(Cc2ccccc2)c2ncccc2C1(Sc1ccccc1)Sc1ccccc1 [Compound 26, 1,3-dihydro-3,3-(diphenylthio)-1-(phenylmethyl)-2H-pyrrolo[2,3-b]pyridin-2-one]
- inhibition at 15 µM (5-lipoxygenase; 15 μM): 96%
- % inhibition of HHT production in human platelets at 15 µM (cyclooxygenase; 15 μM): 11%

Compound: CC(=O)OCCSC1(C(C)=O)C(=O)N(c2ccccc2)c2ncccc21 (stereo not drawn) [Compound 28, 1,3-dihydro-3-[2-(acetoxy)-ethylthio)-3-(1-oxoethyl)-1-phenyl-2H-pyrrolo[2,3-b]pyridin-2-one]
- PMN Assay % Inhibition 5-HETE (5-lipoxygenase; 15 μM): 96%
- inhibition at 15 µM (5-lipoxygenase; 15 μM): 80%
- % inhibition of HHT production in human platelets (cyclooxygenase; 15 μM): 29%
- % inhibition of HHT production in human platelets at 15 µM (cyclooxygenase; 15 μM): 35%

Compound: COc1c(Sc2ccccc2)c2cccnc2n1-c1ccccc1 [Compound 35, 2-methoxy-1-phenyl-3-(phenylthio)-1H-pyrrolo[2,3-b]pyridine]
- inhibition of 5-HETE in the PMN assay (5-lipoxygenase; concentration not given): 80%
- % inhibition of HHT production in human platelets (cyclooxygenase; concentration not given): 55%

Other lines, results leading:

- inhibition at 50 µM (5-lipoxygenase): 63%
- % inhibition of HHT production in human platelets at 50 µM (cyclooxygenase): 17%
Compound: CC(C)N1C(=O)C(Sc2ccccc2)c2cccnc21 (stereo not drawn) [Compound 14, 1,3-dihydro-1-(methylethyl)-3-(phenylthio)-2H-pyrrolo[2,3-b]pyridin-2-one]

- inhibition at 50 µM (5-lipoxygenase): 63%
- % inhibition of HHT production in human platelets at 50 µM (cyclooxygenase): 21%
Compound: CN1C(=O)C(Sc2ccccc2)c2cccnc21 (stereo not drawn) [Compound 17, 1,3-dihydro-1-methyl-3-(phenylthio)-2H-pyrrolo[2,3-b]pyridin-2-one]

- inhibition at 50 µM (5-lipoxygenase): 86%
- % inhibition of HHT production in human platelets at 50 µM (cyclooxygenase): 64%
Compound: Cc1c(Cl)cccc1N1C(=O)C(Sc2ccccc2)c2cccnc21 (stereo not drawn) [Compound 18, 1,3-dihydro-1-(3-chloro-2-methylphenyl)-3-(phenylthio)-2H-pyrrolo[2,3-b]pyridin-2-one]

- inhibition at 50 µM (5-lipoxygenase): 91%
- % inhibition of HHT production in human platelets at 50 µM (cyclooxygenase): 71%
Compound: O=C1C(Sc2ccc(Cl)cc2)c2cccnc2N1c1ccccc1 (stereo not drawn) [Compound 19, 1,3-dihydro-3-(4-chlorophenylthio)-1-phenyl-2H-pyrrolo[2,3-b]pyridin-2-one]

- inhibition at 15 µM (5-lipoxygenase; 15 μM): 87%
- % inhibition of HHT production in human platelets at 15 µM (cyclooxygenase; 15 μM): 52%
Compound: O=C1C(Sc2ccccc2)c2cccnc2N1c1cccc(Cl)c1 (stereo not drawn) [Compound 33, 1,3-dihydro-1-(3-chlorophenyl)-3-(phenylthio)-2H-pyrrolo]

- inhibition at 15 µM (5-lipoxygenase; 15 μM): 99%
- % inhibition of HHT production in human platelets at 15 µM (cyclooxygenase; 15 μM): 54%
Compound: O=C1C(Sc2ccccc2)c2cccnc2N1c1ccc(Cl)c(Cl)c1 (stereo not drawn) [Compound 34, 1,3-dihydro-1-(3,4-dichlorophenyl)-3-(phenylthio)[2,3-b]pyridin-2-one]
